Measurements published in patent publication US20250214967A1, “FAK DEGRADERS, PHARMACEUTICAL COMPOSITIONS, AND THERAPEUTIC APPLICATIONS” (Berrybio (Shanghai) Limited, priority 2022, published 2025).

Key:
FAK [1] = biological target: T1, FAK (Homo sapiens (Human), UniProt Q05397); test: FAK Degradation Assay (Western blot, FAK/GAPDH); format: cell-based; conditions: MDA-MB-231 cells, 24 h treatment, Western blot normalized to DMSO; for DC50: read-out: DC50 (half-maximal degradation concentration), FAK Degradation; for Dmax: read-out: Dmax (maximal degradation), FAK Degradation
Description: H2122 (4×10^5), MIA PaCa-2 (6×10s), or MDA-MB-231 cells (6×10^5) per well were seeded into a 6-well plate containing 2 mL of complete culture medium (RPMI-1640 for H2122 and MDA-MB-231, and DMEM/F12 for MIA PaCa-2, supplemented with 10% FBS and 1% penicillin/streptomycin). The cells were cultured overnight at 37° C. in the presence of 5% C02 before treated with a compound in a series of concentrations for 24 h. The cells were then washed with ice-cold Dulbecco's phosphate-buffered saline (DPBS). A radioimmuno-precipitation assay (RIPA) buffer was added to lyse the cells on ice for 20 min. The cells were then scrapped using cell scraper and collected in a 1.5 mL tube, which was centrifuged at 14,000 g and 4° C. for 15 min. The supernatant was collected and the total protein concentration of each sample was determined using a PIERCE™ BCA protein assay kit. The supernatant was diluted to the same protein concentration with the RIPA buffer after the BCA assay. Samples of the same protein amount were mixed with 4× a lithium dodecyl sulfate (LDS) sample buffer and boiled at 95° C. for 5 min. The denatured samples were used for electrophoresis.
For Western blot, the same volume containing ˜50 μg protein for each sample was loaded onto 4-12% Bis-Tris protein gel. The gel was run at 80 V for 0.5 h and at 120 V for 1 h. When the electrophoresis was completed, an IBLOT™ 2 gel transfer device was used to transfer FAK and GAPDH proteins at 20 V for 7 min. All the membranes were blocked in 5% nonfat dry milk in a TBST buffer at RT for 1 h and then incubated with primary antibodies (anti-FAK and anti-GAPDH) in a TBST buffer containing 5% BSA at 4° C. overnight. The membranes were washed with the TBST buffer and then incubated with secondary antibodies (goat anti-rabbit IgG H&L for FAK and goat anti-mouse IgG H&L for GAPDH) at room temperature for 1 h. Blots were visualized using an IMAGEQUANT™ LAS-4000. The chemiluminescent signals from ECL™ Western blotting reagents were captured. The band integrated intensity from each 16-bit blot image was used for quantitation. The FAK/GAPDH signal ratios of each sample were normalized using DMSO as a control and the normalized data for each compound were used to obtain its half-maximal degradation concentration (DC50) and maximal degradation (Dmax).
Target sequence in this assay (Q05397 whole entry): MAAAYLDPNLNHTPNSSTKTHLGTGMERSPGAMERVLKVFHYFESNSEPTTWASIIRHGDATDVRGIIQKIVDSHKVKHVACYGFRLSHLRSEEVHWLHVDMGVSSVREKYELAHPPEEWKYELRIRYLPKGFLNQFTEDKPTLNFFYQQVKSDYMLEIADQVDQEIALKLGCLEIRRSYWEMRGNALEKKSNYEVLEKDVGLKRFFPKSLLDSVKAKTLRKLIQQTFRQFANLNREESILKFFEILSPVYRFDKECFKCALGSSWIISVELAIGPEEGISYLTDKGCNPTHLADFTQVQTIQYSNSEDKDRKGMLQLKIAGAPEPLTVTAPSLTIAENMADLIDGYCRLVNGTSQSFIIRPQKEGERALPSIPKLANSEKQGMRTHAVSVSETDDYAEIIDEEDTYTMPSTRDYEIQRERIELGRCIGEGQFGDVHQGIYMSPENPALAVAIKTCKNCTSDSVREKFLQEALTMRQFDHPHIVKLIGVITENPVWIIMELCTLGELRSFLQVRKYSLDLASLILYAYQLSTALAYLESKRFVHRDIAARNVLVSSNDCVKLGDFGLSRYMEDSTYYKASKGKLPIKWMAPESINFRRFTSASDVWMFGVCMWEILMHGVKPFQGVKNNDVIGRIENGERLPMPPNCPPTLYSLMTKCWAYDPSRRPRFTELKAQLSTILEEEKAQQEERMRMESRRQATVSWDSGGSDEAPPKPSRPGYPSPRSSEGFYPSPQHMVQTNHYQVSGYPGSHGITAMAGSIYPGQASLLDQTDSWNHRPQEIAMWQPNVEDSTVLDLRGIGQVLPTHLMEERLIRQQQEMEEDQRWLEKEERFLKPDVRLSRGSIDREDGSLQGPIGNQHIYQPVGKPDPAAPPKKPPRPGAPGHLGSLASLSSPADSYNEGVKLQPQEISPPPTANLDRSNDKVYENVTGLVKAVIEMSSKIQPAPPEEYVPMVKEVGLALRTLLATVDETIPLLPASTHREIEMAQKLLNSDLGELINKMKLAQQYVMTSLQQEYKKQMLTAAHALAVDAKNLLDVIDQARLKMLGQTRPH

FAK [2] = biological target: T1, FAK; test: FAK Kinase Assay (TR-FRET, LanthaScreen); format: biochemical; conditions: FAK 1 nM, ATP 6.8 μM, fluorescein-polyGT 0.2 μM, 30 min; read-out: IC50, FAK Inhibition
Description: The inhibitory activity of a compound against FAK was determined in a buffer containing 5 mM HEPES, pH 7.5, 0.01% Triton, 0.5 mM EGTA, and 0.01% BRIJ™-35 in a 384-well assay plate. The assay was carried out in the presence of the FAK at 1 nM and ATP at 6.8 μM using fluorescein-polyGT (0.2 μM) as an FAK substrate. Each assay mixture was incubated at room temperature for 30 min. A LANTHASCREEN® Tb-PY20 antibody was added to each well to stop the enzymatic reaction. The plate was incubated at room temperature for 60 min before reading on an ENVISION using TR-FRET module (excitation at 340 nm and emission at 520 nm and 495 nm).
Target sequence in this assay (Q05397 whole entry, species assumed): as the sequence (Q05397 whole entry) above

Compound	DC50 (FAK [1])	Dmax (FAK [1])	IC50 (FAK [2])
Cc1cc(OCCOCCOCCOc2ccc3c(c2)C(=O)N(C2CCC(=O)NC2=O)C3=O)ccc1Nc1ncc(C(F)(F)F)c(NCc2cccc(N(C)S(C)(=O)=O)c2)n1 (centres unmarked) [Compound A1, N-(3-(((2-((4-(2-(2-(2-((2-(2,6-dioxopiperidin-3-yl)-1,3-dioxoisoindolin-5-yl)oxy)ethoxy)ethoxy)ethoxy)-2-methylphenyl)amino)-5-(trifluoromethyl)pyrimidin-4-yl)-amino)methyl)phenyl)-N-methylmethanesulfonamide]	7 nM	89%	4.5 nM
Cc1cc(OCCOCCOCCOc2ccc3c(c2)C(=O)N(C2CCC(=O)NC2=O)C3=O)ccc1Nc1ncc(C(F)(F)F)c(NCc2cccc(P(C)(C)=O)c2)n1 (centres unmarked) [Compound A3, 5-(2-(2-(2-(4-((4-((3-(Dimethylphosphoryl)benzyl)amino)-5-(trifluoromethyl)-pyrimidin-2-yl)amino)-3-methylphenoxy)ethoxy)ethoxy)ethoxy)-2-(2,6-dioxopiperidin-3-yl)-isoindoline-1,3-dione]	1980 nM	100%	223 nM
CN(c1nccnc1CNc1nc(Nc2ccc(CNC3CCN(c4ccc5c(c4)C(=O)N(C4CCC(=O)NC4=O)C5=O)CC3)c(F)c2)ncc1C(F)(F)F)S(C)(=O)=O (centres unmarked) [Compound A30, N-(3-(((2-((4-(((1-(2-(2,6-dioxopiperidin-3-yl)-1,3-dioxoisoindolin-5-yl)piperidin-4-yl)amino)methyl)-3-fluorophenyl)amino)-5-(trifluoromethyl)pyrimidin-4-yl)amino)methyl)-pyrazin-2-yl)-N-methylmethanesulfonamide]	1.3 nM	96%	
CN(c1nccnc1CNc1nc(Nc2ccc(C(=O)N3CCC(N4CCN(c5ccc6c(c5)C(=O)N(C5CCC(=O)NC5=O)C6=O)CC4)CC3)cc2)ncc1C(F)(F)F)S(C)(=O)=O (centres unmarked) [Compound A5, N-(3-(((2-((4-(4-(4-(2-(2,6-dioxopiperidin-3-yl)-1,3-dioxoisoindolin-5-yl)-piperazin-1-yl)piperidine-1-carbonyl)phenyl)amino)-5-(trifluoromethyl)pyrimidin-4-yl)amino)-methyl)pyrazin-2-yl)-N-methylmethanesulfonamide]	1.4 nM	89%	1.8 nM
CNC(=O)c1ccccc1Nc1nc(Nc2ccc(CNC3CCN(c4ccc(C5CCC(=O)NC5=O)cc4)CC3)cc2)ncc1C(F)(F)F (centres unmarked) [Compound B2, 2-((2-((4-(((1-(4-(2,6-Dioxopiperidin-3-yl)phenyl)piperidin-4-yl)amino)methyl)-phenyl)amino)-5-(trifluoromethyl)pyrimidin-4-yl)amino)-N-methylbenzamide]	0.2 nM	98%	
CNC(=O)c1ccccc1Nc1nc(Nc2ccc(CN[C@@H]3CCN(c4ccc5c(c4)C(=O)N(C4CCC(=O)NC4=O)C5=O)C[C@@H]3F)cc2)ncc1C(F)(F)F (stereo partly drawn) [Compound A39, 2-((2-((4-((((3S,4R)-1-(2-(2,6-Dioxopiperidin-3-yl)-1,3-dioxoisoindolin-5-yl)-3-fluoropiperidin-4-yl)amino)methyl)phenyl)amino)-5-(trifluoromethyl)pyrimidin-4-yl)amino)-N-methylbenzamide]	0.71 nM	89%	
CN(c1ccccc1CNc1cc(Nc2ccc(C(=O)NC3CN(c4ccc5c(c4)C(=O)N(C4CCC(=O)NC4=O)C5=O)C3)cc2)ncc1C(F)(F)F)S(C)(=O)=O (centres unmarked) [Compound A20, N-(1-(2-(2,6-Dioxopiperidin-3-yl)-1,3-dioxoisoindolin-5-yl)azetidin-3-yl)-4-((4-((2-(N-methylmethylsulfonamido)benzyl)amino)-5-(trifluoromethyl)pyridin-2-yl)amino)-benzamide]	4.6 nM	79%	
CNC(=O)c1ccccc1Nc1cc(Nc2ccc(CNC3CCN(c4ccc5c(c4)C(=O)N(C4CCC(=O)NC4=O)C5=O)CC3)c(F)c2)ncc1C(F)(F)F (centres unmarked) [Compound A29, 2-((2-((4-(((1-(2-(2,6-dioxopiperidin-3-yl)-1,3-dioxoisoindolin-5-yl)piperidin-4-yl)amino)-methyl)-3-fluorophenyl)amino)-5-(trifluoromethyl)pyridin-4-yl)amino)-N-methyl-benzamide]	8.55 nM	97%	
CN(c1nccnc1CNc1nc(Nc2ccc(CNC3CCN(c4ccc5c(c4)C(=O)N(C4CCC(=O)NC4=O)C5=O)CC3)cc2)ncc1C(F)(F)F)S(C)(=O)=O (centres unmarked) [Compound A7, N-(3-(((2-((4-(((1-(2-(2,6-Dioxopiperidin-3-yl)-1,3-dioxoisoindolin-5-yl)-piperidin-4-yl)amino)methyl)phenyl)amino)-5-(trifluoromethyl)pyrimidin-4-yl)amino)methyl)-pyrazin-2-yl)-N-methylmethanesulfonamide]	0.6 nM	99%	0.47 nM
CN(c1nccnc1CNc1nc(Nc2cccc(C(=O)NC3CCN(c4ccc5c(c4)C(=O)N(C4CCC(=O)NC4=O)C5=O)CC3)c2)ncc1C(F)(F)F)S(C)(=O)=O (centres unmarked) [Compound A12, N-(1-(2-(2,6-dioxopiperidin-3-yl)-1,3-dioxoisoindolin-5-yl)piperidin-4-yl)-3-((4-(((3-(N-methylmethylsulfonamido)pyrazin-2-yl)methyl)amino)-5-(trifluoromethyl)pyrimidin-2-yl)amino)benzamide]	5.6 nM	98%	
CN(c1nccnc1CNc1nc(Nc2ccc(CNC3CCN(CC4CCN(c5ccc6c(c5)C(=O)N(C5CCC(=O)NC5=O)C6=O)CC4)CC3)cc2)ncc1C(F)(F)F)S(C)(=O)=O (centres unmarked) [Compound A6, N-(3-(((2-((4-(((1-((1-(2-(2,6-Dioxopiperidin-3-yl)-1,3-dioxoisoindolin-5-yl)-piperidin-4-yl)methyl)piperidin-4-yl)amino)methyl)phenyl)amino)-5-(trifluoromethyl)pyrimidin-4-yl)amino)methyl)pyrazin-2-yl)-N-methylmethanesulfonamide]	2.5 nM	99%	0.39 nM
CN(c1nccnc1CNc1nc(Nc2ccc(C(=O)NC3CCN(CC4CCN(c5ccc6c(c5)C(=O)N(C5CCC(=O)NC5=O)C6=O)CC4)CC3)cc2)ncc1C(F)(F)F)S(C)(=O)=O (centres unmarked) [Compound A4, N-(1-((1-(2-(2,6-dioxopiperidin-3-yl)-1,3-dioxoisoindolin-5-yl)piperidin-4-yl)methyl)piperidin-4-yl)-4-((4-(((3-(N-methylmethylsulfonamido)pyrazin-2-yl)methyl)amino)-5-(trifluoromethyl)pyrimidin-2-yl)amino)benzamide]	0.5 nM	92%	0.4 nM
CNC(=O)c1ccccc1Nc1cc(Nc2ccc3c(c2)CC(=O)N3CC2CCN(c3ccc4c(c3)C(=O)N(C3CCC(=O)NC3=O)C4=O)CC2)ncc1C(F)(F)F (centres unmarked) [Compound A17, 2-((2-((1-((1-(2-(2,6-Dioxopiperidin-3-yl)-1,3-dioxoisoindolin-5-yl)piperidin-4-yl)methyl)-2-oxoindolin-5-yl)amino)-5-(trifluoromethyl)pyridin-4-yl)amino)-N-methyl-benzamide]	1.7 nM	88%	
